Reference: patent US8328898B2, “Environment-friendly carbon-nano synergistic complex fertilizers” (priority 2007, dated 2012)

Assays:
tomato Jinpengshengguan = assay: Tomato production experiment (Experiment 11); type: in vivo
winter wheat Jing411 = assay: Winter wheat field experiment, Agricultural Science Research Institute of Daxing District; type: in vivo; conditions: for Production increasing rate (comparing with control): in vivo; for Average production per mu: winter wheat Jing411
Text: (§1) Experiments below are preceded with general fertilizing amount, and using the same fertilizing amount and the same fertilizing methods.

corn Jiyuan No. 1 = assay: Corn field experiment; type: in vivo; conditions: for Ear weight in the whole area: fresh weight of corn
Text: Experiments below are preceded with general fertilizing amount, and using the same fertilizing amount and the same fertilizing methods. 2.

[1] = not told
[2] = tested on: winter wheat Beinong 9549; assay: Winter wheat field experiment, demonstration park of high quality agricultural products center; type: in vivo; conditions: for Increase rate: vs control; for Average production per mu: winter wheat Beinong 9549, repeated 3 times
Description: Experiments below are preceded with general fertilizing amount, and using the same fertilizing amount and the same fertilizing methods. […] The Agricultural Science Research Institute of […] District, Beijing • D. Qingyundian Station, the Agricultural Science Research Institute of […] District, Bejing • (2) Experimental protocols and production determination of winter wheat in every experimental site […] Production is determined on Jun.

winter wheat 9428 = assay: Winter wheat field experiment, Qingyundian Station; type: in vivo; conditions: for Production per mu: winter wheat 9428
Text: as §1

Ventura celery = assay: Celery production experiment
eggplant = assay: Production increasing effects on eggplant (Experiment 9); type: in vivo
[3] = comparing with ordinary ammonium bicarbonate (ABC)
[4] = eggplant seedling, 0.0165 kg fertilizer per plant

## NC(N)=O [URA, urea]
Tomato Jinpengshengguan; control = 0
  Production increasing rate: 9.80%
Tomato Jinpengshengguan; during growth of tomato, repeated 6 times
  Average area production: 109.65 kg
Winter wheat Jing411
  Production increasing rate (comparing with control): 0.28%
  Average production per mu: 328.67 kg
Corn Jiyuan No. 1
  Ear weight in the whole area: 38.1 kg
Corn Jiyuan No. 1; in vivo
  Production increasing rate comparing with urea: 0%
[1]
  Average of N2O—N annual emission flux: 71.92 μg N2O/m^3-h
  N2O—N annual emission flux range: −197-2867 μg N2O/m^3-h
  N2O—N emission flux/nitrogen fertilizer applied: 1.98%
[2]
  Increase rate: 17.07%
  Average production per mu: 487 kg
Winter wheat 9428; control = 0
  Production increasing rate: 10.39%
Winter wheat 9428; general fertilizer = 0
  Production increasing rate: 5.99%
Winter wheat 9428
  Production per mu: 425 kg
Ventura celery; equal weight as urea
  Increasing rate comparing with urea: 0%
Ventura celery; equal weight of fertilizers
  Average fresh weight of plants: 11.55 kg/20 plants
Ventura celery; in vivo
  Fresh weight of celery per mu: 7703.85 kg
  Increase rate comparing with control: 30.2%
Ventura celery; over control
  Production increased per mu: 1787.56 kg

## ammonium bicarbonate [ABC]
Winter wheat Jing411
  Production increasing rate (comparing with control): 3.33%
  Average production per mu: 338.69 kg
eggplant; [3]
  Increasing rate of eggplant fruit weight: 0%
  Increasing rate of leaf number: 0%
  Increasing rate of plant height: 0%
eggplant; eggplant seedling
  Leaf number 1: 15 number
  Leaf number 2: 33 number
  Leaf number 3: 4 number
  Leaf number 4: 26 number
  Leaf number 5: 28 number
  Leaf number 6: 15 number
  Leaf number 7: 28 number
eggplant; [4]
  Plant height 1: 64 cm
  Plant height 2: 64 cm
  Plant height 3: 32 cm
  Plant height 4: 75 cm
  Plant height 5: 65 cm
  Plant height 6: 61 cm
  Plant height 7: 62 cm
eggplant; eggplant seedling, 7 plants
  Average height: 56.72 cm
  Average leaf number: 21.28 number
eggplant; in vivo
  Eggplant fruit weight: 1.46 kg
eggplant; over ordinary ammonium bicarbonate (ABC)
  Increasing weight of eggplant fruit: 0 kg
Corn Jiyuan No. 1
  Ear weight in the whole area: 39.6 kg
Corn Jiyuan No. 1; in vivo
  Production increasing rate comparing with ammonium bicarbonate: 0%
  Production increasing rate comparing with urea: 4.07%
[2]
  Increase rate: 15.63%
  Average production per mu: 481 kg
Winter wheat 9428; control = 0
  Production increasing rate: 3.12%
Winter wheat 9428
  Production per mu: 397 kg
